For 58 molecules, RP-LC retention time results are on record in the METLIN SMRT retention time set (Domingo-Almenara et al. 2019).

A short description of this series: gradient 5% acetonitrile 3 min, to 50% in 2 min, to 85% in 15 min, held 3 min, 100 µL/min. The settings on record: column: Zorbax Extend-C18 2.1 x 50 mm; eluents: water / acetonitrile, 0.1% formic acid. In a few lines:
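Retention times come from adduct peaks that were picked computationally and then checked by hand. The standards, pure and pooled in mixtures of ~100 molecules, were run on a Zorbax Extend-C18 column (2.1 × 50 mm, 1.8 μm) at 100 μL/min with water and acetonitrile, each with 0.1% formic acid. Detection was by quadrupole time-of-flight mass spectrometry in positive and negative ionization mode, with a dead volume of 40 μL and a dwell volume of 900 μL.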
`O=C(CCC(=O)N1CCN(c2nc3cccnc3s2)CC1)N1CCCC1` showed an RP-LC retention time of 612 s.
In the case of `COc1ccc(C2(C(=O)Nc3cc(-c4cccs4)no3)CC2)cc1`, the RP-LC retention time came to 1060 s.
The value for `Cc1ccc(CNC(=O)C2CCCN(c3ncnc4c3nc3n4CCCCC3)C2)cc1` (stereo not drawn) was 793 s; that for `O=C(c1cc(O)c(O)c([N+](=O)[O-])c1)c1ccccc1F` was 716 s; that for `Cc1ccccc1Nc1c(-c2ccccc2)nc2ccc(Br)cn12` was 799 s.
Turning to `CC1CCN(S(=O)(=O)c2cccnc2Nc2ccc(Cl)cc2)CC1`, the RP-LC retention time is 1370 s.
Take `O=C(COc1ccc(-c2nnc3n2CCCC3)cc1)Nc1cccc(Br)c1`: the RP-LC retention time came out at 642 s.
As for `CCNC(=O)C1CCCN(c2nc3ncn(CC(=O)NCc4ccc(OC)cc4)c(=O)c3s2)C1` (stereo not drawn), the figure is 642 s; as for `Cc1c(Cl)cccc1NC(=O)CSc1ccc(N2CCCC(C(=O)NC3CC3)C2)nn1` (stereo not drawn), 645 s; as for `O=C(Cn1c(=O)cnc2cc(C(=O)NC3CCCC3)ccc21)NCc1ccc(F)cc1F`, 721 s.
With `CN1c2cc(C(=O)Nc3ccc(OC(F)(F)F)cc3)ccc2C(=O)N2CCCCC21` (stereo not drawn), the RP-LC retention time came out at 1010 s.
In turn, `O=C(Nc1ccccn1)C1CCN(S(=O)(=O)c2cc(-c3noc(C4CCC4)n3)cs2)CC1` had an RP-LC retention time of 893 s.
On to `COc1ccc2sc(N(CCN(C)C)C(=O)Cc3ccccc3)nc2c1`, for which the RP-LC retention time was determined as 601 s.
The molecule `CC(C)c1ccc(C(=O)N2CCCC2COc2ccc(C(=O)NC3CC3)cc2)cc1` (stereo not drawn) had an RP-LC retention time of 910 s.
`COC(=O)C1CCN(C(=O)c2cccnc2-c2nc3ccccc3s2)CC1`: the RP-LC retention time is 747 s.
`Cc1nc(N2CCN(c3ccccc3F)CC2)nc2c1C(=O)CC(c1ccccc1O)C2` (stereo not drawn) showed an RP-LC retention time of 1190 s.
On to `O=C(O)c1nnn(-c2ccc3c(c2)OCO3)c1-c1cccnc1`, for which the RP-LC retention time was determined as 602 s.
Take `CCn1cnc(S(=O)(=O)N2CCC(C(=O)Nc3ccc(OC)cc3OC)CC2)c1`: the RP-LC retention time stood at 706 s.
As to `Cc1ccc(-c2nc(NC(=O)Cc3csc(-c4ccccc4)n3)sc2C)cc1`, the RP-LC retention time was 1250 s.
`CC(C)NC(=O)CN1CCN(C(=O)c2sc3ncccc3c2-n2cccc2)CC1` returned an RP-LC retention time of 607 s.
In turn, `CCOc1ccc(-n2ccn3cc(-c4cccc(Cl)c4)nc3c2=O)cc1` had an RP-LC retention time of 947 s.
For the molecule `O=C(CCc1ccccc1)Nc1nnc(SCC(=O)c2ccccc2)s1`, the RP-LC retention time worked out at 892 s.
The molecule `CCOC(=O)c1cnc2c(OC)cccc2c1NCC1COc2ccccc2O1` (stereo not drawn) registered an RP-LC retention time of 782 s.
The molecule `NC(=O)c1ccc(-c2nc(-c3ccc4c(c3)OCO4)c(-c3ccccn3)[nH]2)cc1` yielded an RP-LC retention time of 647 s.
The value for `CCN1CCn2cc(S(=O)(=O)Nc3ccc(F)cc3C)cc2C1=O` was 730 s; that for `COc1ccc(OC)c(N2CC(c3nc4ccccc4n3CCN3CCOCC3)CC2=O)c1` (stereo not drawn) was 597 s; that for `Clc1ccc(-c2noc(Cc3nc(-c4ccccc4)cs3)n2)cc1` was 1290 s.
`CCc1ccc(C2=C(C)C(N3CCCN(C(=O)NC(C)CC)CC3)=NS2(=O)=O)cc1` (stereo not drawn) displayed an RP-LC retention time of 866 s.
Molecule `CC(C)(C)n1nnnc1C1CC2(CCOCC2)C(=O)N1Cc1ccc(F)cc1Cl` (stereo not drawn) had an RP-LC retention time of 671 s.
As to `COc1ccc(NC(=O)c2csc(-c3cn(C)c4ncccc34)n2)cc1`, the RP-LC retention time was 923 s.
Regarding `COC(=O)c1ccc(C(=O)Nc2nnc(-c3ccc(Br)o3)o2)cc1`, the RP-LC retention time is 745 s.
As for `O=C(c1ccc(C(F)(F)F)cc1)N1CC2CN(S(=O)(=O)c3ccccc3)CC(C1)O2`, the figure is 881 s.
`CC1(C(=O)NCCCN2CCc3ccccc3C2)CCCCC(=O)N1` (stereo not drawn): the RP-LC retention time was 578 s.
The value for `COc1ccccc1N1CCN(C(=O)C2=CCN(Cc3ccccc3)CC2)CC1` was 629 s; that for `Cc1noc2nc(C)n(CC(=O)NC(C)c3ccccc3)c(=O)c12` (stereo not drawn) was 756 s.
`O=C(NCc1cccc(F)c1)c1cn2cc(Cl)ccc2n1` gave an RP-LC retention time of 799 s.
For the molecule `CCC(C)NC(=O)N(C)CCc1noc(COc2ccc(Cl)cc2)n1` (stereo not drawn), the RP-LC retention time was 869 s.
As for `CC1(C(=O)NC2CCCCCCC2)CN(S(C)(=O)=O)CC(=O)N1c1cccc(F)c1` (stereo not drawn), the figure is 919 s; as for `Cc1ccccc1S(=O)(=O)N1CCC(c2cc(N)on2)CC1`, 779 s.
In turn, `COc1cc(=O)n(-c2ccccc2C)nc1C(=O)Nc1nc2ccc(C)cc2s1` yielded an RP-LC retention time of 861 s.
As to `CSc1cccc(NC(=O)N2CCc3nc[nH]c3C2)c1`, the RP-LC retention time came to 590 s.
As for `C[C@@H]1O[C@@H](O[C@H]2C[C@@H](O)[C@]3(CO)[C@@H]4C(CC[C@]3(O)C2)[C@@]2(O)CC[C@H](C3COC(=O)C3)[C@@]2(C)C[C@H]4O)[C@H](O)[C@H](O)[C@H]1O` (stereo partly drawn), the figure is 602 s; as for `CC1CCCN(CCCNC(=O)CCCN2C(=O)CCn3nc(-c4cccn4C)cc32)C1` (stereo not drawn), 614 s; as for `CC(C)CC(=O)NCC12CCCC=C1N(C)C(=O)CC2` (stereo not drawn), 726 s.
`Cc1cccc(S(=O)(=O)N2CCCC2c2nc(-c3cccc(C(F)(F)F)c3)no2)c1` (stereo not drawn): the RP-LC retention time came to 1200 s.
Molecule `CCC(=O)N1CCc2sc(C(=O)NC3CCN(Cc4ccccc4)CC3)cc2C1` came in with an RP-LC retention time of 604 s.
`COc1ccc(C(C)NC(=O)C2c3ccccc3CCN2C(=O)C2CC2)cc1OC` (stereo not drawn) returned an RP-LC retention time of 802 s.
In the case of `Cn1cc(S(=O)(=O)N2CCC(C(=O)N3CCCCCC3)CC2)cc1C(=O)N1CCCC1`, the RP-LC retention time was determined as 732 s.
With `CCN(Cc1ccccc1)C(=O)[C@H]1[C@@H](c2cc(OC)c(OC)c(OC)c2)c2cc3c(cc2[C@@H](O)[C@@H]1CO)OCO3`, the RP-LC retention time is 770 s.
For the molecule `CCOC(=O)C1CCN(c2cc3c(cc2NC(=O)C(C)C)n(C)c(=O)c(=O)n3C)CC1`, the RP-LC retention time worked out at 733 s.
`Cc1cc(C(F)(F)F)nn1CC(=O)NCC12CCC=C1N(C)C(=O)CC2` (stereo not drawn): the RP-LC retention time amounted to 739 s.
`Cc1ccccc1-c1noc(CN2N=NC3C(=O)N(c4ccc5c(c4)CCC5)C(=O)C32)n1` (stereo not drawn) came in with an RP-LC retention time of 1120 s.
`COc1ccccc1-c1nnc2sc(-c3cc(C)on3)nn12` had an RP-LC retention time of 823 s.
For `Nc1cc(C2CCN(C(=O)Nc3ccc(F)cc3)CC2)no1`, the RP-LC retention time worked out at 668 s.
`CCOC(=O)Cc1nnc(-c2cc(OC)cc(OC)c2)o1`: the RP-LC retention time was 836 s.
The molecule `Cc1cc2nn(CC(=O)NCc3ccc(F)cc3)c(=O)n2c(Nc2ccccc2C)n1` had an RP-LC retention time of 977 s.
With `Clc1ccccc1-c1nnc(-c2ccc(-n3ccnc3)nc2)o1`, the RP-LC retention time worked out at 658 s.
As for `COc1ccc(CNC(=O)NCCc2nc3cccnc3n2Cc2ccccc2)cc1`, the figure is 710 s.
